{"source": "patent US20040002441A1", "about": "“Recombination modulators and methods for producing and using the same” (priority 2000, published 2004)", "assay_type_in_all_cases": "biochemical", "key": {"[1]": {"target": "T1, Vaccinia topoisomerase (type Ib) (Vaccinia virus, UniProt P68698)", "T1 construct": "made in house; host or cells: Escherichia coli BL21 infected with bacteriophage λCE6", "experiment": "biochemical", "settings": "for IC50: IC50 for DNA cleavage (covalent adduct formation)"}, "[2]": {"target": "T2, bacteriophage λ Integrase (Int) (Escherichia phage lambda, UniProt P03700)", "T2 sequence (P03700 1-356)": "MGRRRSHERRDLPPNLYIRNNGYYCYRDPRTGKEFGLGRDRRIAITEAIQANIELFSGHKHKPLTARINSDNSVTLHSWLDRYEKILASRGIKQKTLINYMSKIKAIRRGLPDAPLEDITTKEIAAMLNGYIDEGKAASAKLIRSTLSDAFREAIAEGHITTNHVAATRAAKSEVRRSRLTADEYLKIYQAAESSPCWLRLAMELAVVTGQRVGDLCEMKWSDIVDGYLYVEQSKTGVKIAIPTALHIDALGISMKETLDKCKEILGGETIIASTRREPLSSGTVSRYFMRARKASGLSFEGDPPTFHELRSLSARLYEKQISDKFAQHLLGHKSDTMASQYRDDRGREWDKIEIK", "T2 sequence (P0A6X7 1-99 partner)": "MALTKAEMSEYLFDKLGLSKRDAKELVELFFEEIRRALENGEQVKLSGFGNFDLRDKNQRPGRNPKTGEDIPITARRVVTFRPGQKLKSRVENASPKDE", "T2 sequence (P0A6Y1 1-94 partner)": "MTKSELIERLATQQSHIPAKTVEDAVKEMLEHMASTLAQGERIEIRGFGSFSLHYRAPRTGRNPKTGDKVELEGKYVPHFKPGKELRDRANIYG", "experiment": "Int-mediated bent-L recombination", "settings": "for rank of potency at inhibiting recombination among individual peptides: FIG. 6A", "protocol": "Recombination Assays. Recombination assays were performed as described (Segall, 1998). Briefly, reactions were performed in a total volume of 10 μl and typically contained 1 nM radiolabeled att site as specified, 4 nM unlabeled att site, 50 ng salmon sperm DNA as nonspecific competitor, 44 mM Tris-Cl (pH 8.0), 60 mM KCl, 0.05 mg/ml bovine serum albumin, 7-11 mM Tris borate (pH 8.9), 5 mM spermidine, 1.3 mM EDTA, and 14.6% v/v glycerol. Int and IHF were present at 55 nM and 35 nM final concentrations respectively. During screening, peptide libraries were incubated with Int on ice for 20 minutes (in the same buffer), and the mix was then added to the rest of the recombination reaction. Final concentrations of peptides are specified for each experiment. Reactions were incubated for 60-90 minutes at 30° C. or 37° C., were stopped with 0.2× volume of 2% SDS, layered onto 5% polyacrylamide Tris/SDS gels, and electrophoresed in 1× Tris Tricine SDS buffer at 100 mA (Segall, 1998). Dried gels were visualized and quantitated using a Molecular Dynamics PhosphorImager.\nInt Assays. Site-specific recombination and gel mobility shift assays were performed as described (Segall, 1998). Briefly, reactions were performed in a total volume of 10 or 20 μl and typically contained 1-2 nM radiolabeled att site as specified, 4 nM unlabeled att site, 100-300 ng salmon sperm DNA as nonspecific competitor, 44 mM Tris-Ci (pH 8.0), 60 mM KCl, 0.05 mg/ml bovine serum albumin, 7 mM Tris borate (pH 8.9), 5 mM spermidine, 1.3 mM EDTA, and 14.6% v/v glycerol. Any deviation from this formulation is noted in the figure legends. Gel shift reactions were incubated for 90 minutes at 37° C., layered without loading dyes onto 5% native polyacrylamide gel (29 acrylamide: 1 bis-acrylamide) and electrophoresed in 0.5× Tris borate EDTA buffer. Recombination reactions were stopped with 0.2× volume of 2% SDS, layered onto 5% polyacrylamide Tris/SDS gels, and electrophoresed in 1× Tris Tricine SDS buffer at 100 mA (Segall, 1998). Dried gels were visualized and quantitated using a Molecular Dynamics PhosphorImager. […]"}, "[3]": {"target": "bacteriophage λ Integrase (Int) (Escherichia phage lambda, UniProt P03700)", "experiment": "Int-mediated excisive recombination", "settings": "for IC50: IC50, inhibition of excisive recombination, excision pathway", "protocol": "FIG. 11 depicts effect of peptide KWWCRW (diamonds) and peptide KWWWRW (squares) on the remaining 3 pathways of Int-mediated recombination. Recombination extents were normalized to the amount of recombination in untreated reactions and expressed as relative % recombination. A. Effect of peptides on integrative recombination (IC50 values for both peptides are roughly 0.2 μM). Reactions were assembled as for bent-L recombination except that they were incubated at room temperature, the substrates were a supercoiled plasmid (4.8 kb) carrying attP and ^32P labeled 91 bp PCR fragment encoding attB. […] The recombination substrates were PCR fragments encoding the attL (^32P-labeled) and attR sites. Reactions contained 50 NM Xis in addition to Int and IHF (37 nM), as well as 100 ng salmon sperm DNA, and were incubated at room temperature. C. Effect of peptides on straight-L recombination (IC50 values for peptide KWWCRW is 0.06 μM, while for peptide KWWWRW is slightly over 0.1 μM). Reactions were assembled as for bent-L recombination except that they were incubated at room temperature; the substrates were two PCR fragments, one of which was ^32P-labeled and 187 bp, the other of which was unlabeled and 496 bp.\nInt Assays. Site-specific recombination and gel mobility shift assays were performed as described (Segall, 1998). Briefly, reactions were performed in a total volume of 10 or 20 μl and typically contained 1-2 nM radiolabeled att site as specified, 4 nM unlabeled att site, 100-300 ng salmon sperm DNA as nonspecific competitor, 44 mM Tris-Ci (pH 8.0), 60 mM KCl, 0.05 mg/ml bovine serum albumin, 7 mM Tris borate (pH 8.9), 5 mM spermidine, 1.3 mM EDTA, and 14.6% v/v glycerol. […] Dried gels were visualized and quantitated using a Molecular Dynamics PhosphorImager.\nExcision reactions: Reactions were performed in 10 μL volume containing 20 mM Tris-HCl pH 8, 5 mM spermidine, 0.2 μg BSA, 75 ng to 0.15 μg salmon sperm DNA, 30 mM KCl, and TE (recombination mix). […] All gel images were visualized with a PhosphorImager (Molecular Dynamics) and quantitated with ImageQuant software (Molecular Dynamics)."}, "[4]": {"settings": "IC50, inhibition of bent-L recombination, bent-L pathway"}}, "note": "Values joined by “and” are separate entries in the source; they are usually repeats but may differ in a detail not shown here. Equal values may be shown once. “Also recorded” adds a separate entry of the source. Where no end group is shown, it is not given here."}
{"substance": "KWWCRW-NH2 [Peptide 59, KWWCRW]", "values": [{"measurement": "effect on rate of transesterification", "setting": "[1]", "result": "slowed the rate of transesterification"}, {"measurement": "inhibition of covalent adduct formation", "setting": "[1]", "result": 99, "unit": "%"}, {"measurement": "reduction of covalent adduct formation", "setting": "[1]", "result": 90, "unit": "%"}, {"measurement": "IC50", "setting": "[1]", "result": "~500 nM and 500 nM"}, {"measurement": "inhibition at 0.7 µM", "setting": "[1]; read-out: inhibition of cleavage", "result": 40, "unit": "%"}, {"measurement": "effect on recombination", "setting": "[2]; 1 μM peptide", "result": "almost complete block on recombination"}, {"measurement": "effect on recombination", "setting": "[2]; 10 μM peptide", "result": "inhibited completely"}, {"measurement": "IC50", "setting": "[2]; [4]", "result": "< 100 nM and 20 nM"}, {"measurement": "rank of potency at inhibiting recombination among individual peptides", "setting": "[2]; dose response curves", "result": "most potent at inhibiting recombination"}, {"measurement": "IC50", "setting": "[3]", "result": "1100 nM and ~1100 nM"}]}
{"substance": "WKHYNY-NH2 [Peptide 52, WKHYNY]", "values": [{"measurement": "effect on transesterification (DNA cleavage)", "setting": "[1]", "result": "did not inhibit transesterification; also recorded: do not inhibit cleavage"}, {"measurement": "EC50", "setting": "[2]", "result": "200 to 400", "unit": "nM"}, {"measurement": "effect on recombination", "setting": "[2]; 100 μM, the highest peptide concentration tested", "result": "does not inhibit it completely; also recorded: does not inhibit recombination completely"}, {"measurement": "IC50", "setting": "[2]; IC50, accumulation of Holliday junctions, bent-L pathway", "result": 200, "unit": "nM"}, {"measurement": "peptide concentration at which the most HJs accumulate", "setting": "[2]; bent-L pathway", "result": "about 2 μM"}, {"measurement": "rank of potency at causing the accumulation of HJs among individual peptides", "setting": "[2]; dose response curves, FIG. 6B", "result": "most potent at causing the accumulation of HJs"}, {"measurement": "EC50", "setting": "[3]", "result": "10 to 20", "unit": "µM"}]}
{"substance": "KWWWRW-NH2 [Peptide 56, KWWWRW]", "values": [{"measurement": "effect on rate of transesterification", "setting": "[1]", "result": "slowed the rate of transesterification"}, {"measurement": "inhibition of covalent adduct formation", "setting": "[1]", "result": 99, "unit": "%"}, {"measurement": "IC50", "setting": "[1]", "result": "~500", "unit": "nM"}, {"measurement": "IC50", "setting": "[2]; [4]", "result": "~40", "unit": "nM"}, {"measurement": "rank of potency at inhibiting recombination among individual peptides", "setting": "[2]; dose response curves", "result": "most potent at inhibiting recombination"}, {"measurement": "IC50", "setting": "[3]", "result": "~1100", "unit": "nM"}]}
